The text below walks through data of PMC4467886 (Archives of biochemistry and biophysics, 2008).

The target in this experiment is T1, 5,10-methenyltetrahydrofolate synthetase (MTHFS) (Mus musculus, UniProt Q9D110).
T1 sequence (Q9D110 2-203): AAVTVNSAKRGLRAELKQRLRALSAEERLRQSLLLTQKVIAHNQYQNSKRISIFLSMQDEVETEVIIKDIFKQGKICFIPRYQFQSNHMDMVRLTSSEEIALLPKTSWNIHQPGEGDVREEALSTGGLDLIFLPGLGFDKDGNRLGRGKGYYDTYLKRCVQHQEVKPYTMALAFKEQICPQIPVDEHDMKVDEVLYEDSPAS
Put plainly: spectrophotometric MTHFS activity assay. Type of experiment: biochemical.

A word on the Ki: it is the dissociation constant of the complex between target and ligand, obtained from inhibition or displacement. Consider `Nc1nc2c(c(=O)[nH]1)C[C@@H](CCc1ccc(C(=O)N[C@@H](CCC(=O)O)C(=O)O)s1)CN2` [LY309887], for which the affinity corresponds to a Ki of 6 ± 1 µM.
With `Nc1nc2c(c(=O)[nH]1)C[C@@H](CCc1ccc(C(=O)N[C@@H](CCC(=O)O)C(=O)O)cc1)CN2` [Lometrexol] the figure was 9 ± 3 µM; with `Nc1nc2[nH]cc(CCc3ccc(C(=O)N[C@@H](CCC(=O)O)C(=O)O)cc3)c2c(=O)[nH]1` [Pemetrexed], 48 ± 11 µM.
